According to US20100331305A1, “OXO-HETEROCYCLE FUSED PYRIMIDINE COMPOUNDS, COMPOSITIONS AND METHODS OF USE” (Genentech, Inc., priority 2009, published 2010):

Columns and labels:
PC3 cells = experiment: In vitro cell proliferation assay; assay type: cell-based, human; conditions: values tied to compounds by order of Table 1
Protocol: c. In Vitro Cell Proliferation Assay Efficacy of Formula I compounds were measured by a cell proliferation assay employing the following protocol: 1. An aliquot of 20 μl of cell culture containing about 10^3 cells (PC3 or MDAMB361.1) in medium was deposited in each well of a 384-well, opaque-walled plate. 2. Control wells were prepared containing medium and without cells; Cells were allowed to settle overnight. 3. The compound was added to the experimental wells and incubated for 3 days. 4. The plates were equilibrated to room temperature for approximately 30 minutes. 5. A volume of CellTiter-Glo Reagent equal to the volume of cell culture medium present in each well was added. […] The contents were mixed for 2 minutes on an orbital shaker to induce cell lysis. 7. The plate was incubated at room temperature for 20 minutes to stabilize the luminescence signal. 8. Luminescence was recorded and reported in graphs as RLU=relative luminescence units. Alternatively, cells were seeded at optimal density in a 96 well plate and incubated for 4 days in the presence of test compound. Alamar BlueTM was subsequently added to the assay medium, and cells were incubated for 6 h before reading at 544 nm excitation, 590 nm emission. EC50 values were calculated using a sigmoidal dose response curve fit.

[1] = biological target: mTOR enzyme (mTOR(1360-2549)+GBL) (Homo sapiens, UniProt P42345); experiment: In vitro mTOR kinase assay (TR-FRET); assay type: biochemical; conditions: 0.25 nM mTOR+GBL, 8 uM ATP; values tied to compounds by order of Table 1; 'x or y' = two alternative values for separated diastereomers of unassigned stereochemistry; read-out: activity level (Ki) in the mTOR kinase assay
Chain of mTOR enzyme (mTOR(1360-2549)+GBL) (P42345 1360-2549, species assumed): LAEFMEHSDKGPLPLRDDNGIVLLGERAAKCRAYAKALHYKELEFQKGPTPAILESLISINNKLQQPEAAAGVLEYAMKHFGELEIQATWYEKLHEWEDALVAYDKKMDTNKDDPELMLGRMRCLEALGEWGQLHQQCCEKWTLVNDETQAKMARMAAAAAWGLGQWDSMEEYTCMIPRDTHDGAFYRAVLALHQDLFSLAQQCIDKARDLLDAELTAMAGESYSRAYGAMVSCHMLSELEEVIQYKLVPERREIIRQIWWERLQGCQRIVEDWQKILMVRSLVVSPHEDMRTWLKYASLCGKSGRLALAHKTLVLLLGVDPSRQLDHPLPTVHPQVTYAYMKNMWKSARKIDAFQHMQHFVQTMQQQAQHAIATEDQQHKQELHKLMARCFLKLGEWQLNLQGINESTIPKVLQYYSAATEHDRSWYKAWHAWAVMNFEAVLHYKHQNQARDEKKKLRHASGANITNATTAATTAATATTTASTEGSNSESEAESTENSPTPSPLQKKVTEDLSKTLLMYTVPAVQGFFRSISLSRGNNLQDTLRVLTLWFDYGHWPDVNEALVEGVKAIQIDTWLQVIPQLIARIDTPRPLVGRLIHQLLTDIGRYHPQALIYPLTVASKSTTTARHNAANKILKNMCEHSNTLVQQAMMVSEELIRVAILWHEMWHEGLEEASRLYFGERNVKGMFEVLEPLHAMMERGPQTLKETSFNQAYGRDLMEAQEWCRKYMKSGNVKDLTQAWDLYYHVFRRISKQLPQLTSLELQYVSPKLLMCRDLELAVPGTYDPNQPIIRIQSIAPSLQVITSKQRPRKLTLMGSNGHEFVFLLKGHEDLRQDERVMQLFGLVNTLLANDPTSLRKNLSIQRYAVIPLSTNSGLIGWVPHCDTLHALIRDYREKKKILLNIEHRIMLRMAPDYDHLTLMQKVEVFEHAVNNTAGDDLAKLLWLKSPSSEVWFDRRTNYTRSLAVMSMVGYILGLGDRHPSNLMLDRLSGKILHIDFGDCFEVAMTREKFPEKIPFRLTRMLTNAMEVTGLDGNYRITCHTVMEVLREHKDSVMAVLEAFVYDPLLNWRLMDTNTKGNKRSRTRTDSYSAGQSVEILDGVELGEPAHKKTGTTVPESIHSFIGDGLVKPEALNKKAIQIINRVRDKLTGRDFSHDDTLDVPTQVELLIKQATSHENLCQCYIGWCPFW
Chain of mTOR enzyme (mTOR(1360-2549)+GBL) (Q9BVC4 whole entry partner, species assumed): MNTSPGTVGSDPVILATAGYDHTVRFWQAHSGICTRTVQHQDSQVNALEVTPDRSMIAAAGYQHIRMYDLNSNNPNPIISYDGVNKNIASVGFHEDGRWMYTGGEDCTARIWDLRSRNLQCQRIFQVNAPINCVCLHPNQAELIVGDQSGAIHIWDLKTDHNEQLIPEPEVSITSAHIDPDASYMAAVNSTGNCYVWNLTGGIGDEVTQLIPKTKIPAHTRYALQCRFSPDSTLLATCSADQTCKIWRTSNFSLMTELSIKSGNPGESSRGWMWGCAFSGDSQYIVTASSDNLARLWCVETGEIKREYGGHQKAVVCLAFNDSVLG
Text: a. In Vitro mTOR Kinase Assay
The reaction is stopped by an addition of a Terbium-labeled phospho-specific antibody, e.g., Tb-labeled anti-p4E-BP1 T37/T46, (Invitrogen, product #PR8835A), EDTA, and TR-FRET buffer solution (Invitrogen, Product #PR3756B). Product formation is detected by way of time-resolved fluorescence resonance energy transfer (TR-FRET), which occurs when the phosphorylated substrate and labeled antibody are in close proximity due to phospho-specific binding. Enzymatic activity is measured as an increase in TR-FRET signal using a Perkin Elmer Envision plate reader.
Compound activity is tested in 10 point dose curves starting at the highest final concentration of 10 uM. They are serially diluted in 100% DMSO prior to further dilution with assay buffer. […] 8 μL of solution containing 2 nM Tb-anti-p4E-BP1 antibody & 10 mM EDTA diluted TR-FRET buffer is then added and incubated for 30 minutes to stop the reaction. The plate is scanned with the Envision plate reader. Ki values are calculated in Assay Explorer using the Morrison ATP-competitive tight binding equation for Ki apparent determination.

[2] = Homo sapiens, PC-3, with PC3 cells

Row | Structure (SMILES) | EC50 (PC3 cells; [2]) [nM] | Ki [1] [nM] | EC50 (PC3 cells; with PC3 cells) [nM]
1 | C[C@H]1COCCN1c1nc(-c2ccc(NC(=O)Nc3ccn(C)n3)cc2)nc2c1CCC1(CC1)O2 [Example 52, (S)-1-(1-methyl-1H-pyrazol-3-yl)-3-(4-(4′-(3-methylmorpholino)-5′,6′-dihydrospiro[cyclopropane-1,7′-pyrano[2,3-d]pyrimidine]-2′-yl)phenyl)urea] | 172 | 1 | 
2 | CCNC(=O)Nc1ccc(-c2nc(N3CCOC[C@@H]3C)c3c(n2)[C@](C)(CCN2CCC2)OC3)cc1 [Example 79 er (S), 1-(4-((S)-7-(2-(azetidin-1-yl)ethyl)-7-methyl-4-((S)-3-methylmorpholino)-5,7-dihydrofuro[3,4-d]pyrimidin-2-yl)phenyl)-3-ethylurea] | 774 | 31 | 
3 | O=C(NCCO)Nc1ccc(-c2nc3c(c(N4[C@@H]5CC[C@H]4COC5)n2)CCC2(CC2)O3)cc1 [Example 72, 1-(4-(4′-((1R,5S)-3-oxa-8-azabicyclo[3.2.1]octan-8-yl)-5′,6′-dihydrospiro[cyclopropane-1,7′-pyrano[2,3-d]pyrimidine]-2′-yl)phenyl)-3-(2-hydroxyethyl)urea] | 173 | 1 | 
4 | C[C@H]1COCCN1c1nc(-c2ccc(NC(=O)Nc3cnn(C)c3)cc2)nc2c1CCC1(CC1)O2 [Example 50, (S)-1-(1-methyl-1H-pyrazol-4-yl)-3-(4-(4′-(3-methylmorpholino)-5′,6′-dihydrospiro[cyclopropane-1,7′-pyrano[2,3-d]pyrimidine]-2′-yl)phenyl)urea] | 29 | 1 | 
5 | C[C@H]1COCCN1c1nc(-c2ccc(NC(=O)NCCO)cc2)nc2c1CCCO2 [Example 33, (S)-1-(2-hydroxyethyl)-3-(4-(4-(3-methylmorpholino)-6,7-dihydro-5H-pyrano[2,3-d]pyrimidin-2-yl)phenyl)urea] | 111 | 1 | 
6 | C[C@H]1COCCN1c1nc(-c2ccc(NC(=O)NCCO)cc2)nc2c1COCC2 [Example 24, (S)-1-(2-hydroxyethyl)-3-(4-(4-(3-methylmorpholino)-7,8-dihydro-5H-pyrano[4,3-d]pyrimidin-2-yl)phenyl)urea] | 541 | 3 | 
7 | C[C@H]1COCCN1c1nc(-c2ccc(NC(=O)NC3COC3)cc2)nc2c1CCC1(CC1)O2 [Example 51, (S)-1-(4-(4′-(3-methylmorpholino)-5′,6′-dihydrospiro[cyclopropane-1,7′-pyrano[2,3-d]pyrimidine]-2′-yl)phenyl)-3-(oxetan-3-yl)urea] | 77 | 1 | 
8 | C[C@H]1COCCN1c1nc(-c2ccc(NC(=O)NCCS(C)(=O)=O)cc2)nc2c1COCC2 [Example 59, (S)-1-(4-(4-(3-methylmorpholino)-7,8-dihydro-5H-pyrano[4,3-d]pyrimidin-2-yl)phenyl)-3-(2-(methylsulfonyl)ethyl)urea] | 4000 | 46 | 
9 | C[C@H]1COCCN1c1nc(-c2ccc(Nc3cccc(=O)[nH]3)cc2)nc2c1CCC1(CC1)O2 [Example 54, (S)-6-(4-(4′-(3-methylmorpholino)-5′,6′-dihydrospiro[cyclopropane-1,7′-pyrano[2,3-d]pyrimidine]-2′-yl)phenylamino)pyridin-2(1H)-one] | 40 | 1 | 
10 | CC1(C)OCc2c(N3CCOCC3)nc(-c3ccc4c(N)noc4c3)nc21 [Example 116, 6-(7,7-dimethyl-4-morpholino-5,7-dihydrofuro[3,4-d]pyrimidin-2-yl)benzo[d]isoxazol-3-amine] | 2100 | 17 | 
11 | C[C@H]1COCCN1c1nc(-c2ccc3c(N)noc3c2)nc2c1COC2(C)C [Example 120, (S)-6-(7,7-dimethyl-4-(3-methylmorpholino)-5,7-dihydrofuro[3,4-d]pyrimidin-2-yl)benzo[d]isoxazol-3-amine] | 39 | 24 | 
12 | CCNC(=O)Nc1ccc(-c2nc(N3CCOC[C@@H]3C)c3c(n2)[C@@](C)(CCN(C)CC)OC3)cc1 [Example 78 eq (R), 1-ethyl-3-(4-((R)-7-(2-(ethyl(methyl)amino)ethyl)-7-methyl-4-((S)-3-methylmorpholino)-5,7-dihydrofuro[3,4-d]pyrimidin-2-yl)phenyl)urea] |  | 47 | 161
13 | Cc1nnc(NC(=O)Nc2ccc(-c3nc4c(c(N5CCOC[C@@H]5C)n3)COCC4)cc2)o1 [Example 27, (S)-1-(5-methyl-1,3,4-oxadiazol-2-yl)-3-(4-(4-(3-methylmorpholino)-7,8-dihydro-5H-pyrano[4,3-d]pyrimidin-2-yl)phenyl)urea] | 313 | 26 | 
14 | Cn1cc(NC(=O)Nc2ccc(-c3nc4c(c(N5CCOCC5)n3)CCC3(CC3)O4)cc2)cn1 [Example 45, 1-(1-methyl-1H-pyrazol-4-yl)-3-(4-(4′-morpholino-5′,6′-dihydrospiro[cyclopropane-1,7′-pyrano[2,3-d]pyrimidine]-2′-yl)phenyl)urea] | 102 | 2 | 
15 | C[C@H]1COCCN1c1nc(-c2ccc(Nc3nccc(=O)[nH]3)cc2)nc2c1CCC1(CC1)O2 [Example 55, (S)-2-(4-(4′-(3-methylmorpholino)-5′,6′-dihydrospiro[cyclopropane-1,7′-pyrano[2,3-d]pyrimidine]-2′-yl)phenylamino)pyrimidin-4(3H)-one] | 15 | 0.2 | 
16 | CCNC(=O)Nc1ccc(-c2nc3c(c(N4CCOC[C@@H]4C)n2)CCC2(CC2)O3)cc1 [Example 49, (S)-1-ethyl-3-(4-(4′-(3-methylmorpholino)-5′,6′-dihydrospiro[cyclopropane-1,7′-pyrano[2,3-d]pyrimidine]-2′-yl)phenyl)urea] | 67 | 0.3 | 
17 | C[C@H]1COCCN1c1nc(-c2ccc3oc(N)nc3c2)nc2c1COC2(C)C [Example 123, (S)-5-(7,7-dimethyl-4-(3-methylmorpholino)-5,7-dihydrofuro[3,4-d]pyrimidin-2-yl)benzo[d]oxazol-2-amine] | 302 | 43 | 
18 | CC1(C)OCc2c(N3C[C@H]4CC[C@@H](C3)O4)nc(-c3cnc(N)nc3)nc21 [Example 107, 5-(4-((1R,5S)-8-oxa-3-azabicyclo[3.2.1]octan-3-yl)-7,7-dimethyl-5,7-dihydrofuro[3,4-d]pyrimidin-2-yl)pyrimidin-2-amine] | 231 | 10 | 
19 | CCNC(=O)Nc1ccc(-c2nc(N3CCOC[C@@H]3C)c3c(n2)[C@](C)(CCN(C)CC)OC3)cc1 [Example 78 eq (S), 1-ethyl-3-(4-((S)-7-(2-(ethyl(methyl)amino)ethyl)-7-methyl-4-((S)-3-methylmorpholino)-5,7-dihydrofuro[3,4-d]pyrimidin-2-yl)phenyl)urea] |  | 21 | 1300
20 | CCNC(=O)Nc1ccc(-c2nc3c(c(N4CCOC[C@@H]4C)n2)COC3)cc1 [Example 96, (S)-1-ethyl-3-(4-(4-(3-methylmorpholino)-5,7-dihydrofuro[3,4-d]pyrimidin-2-yl)phenyl)urea] | 28 | 9 | 
21 | C[C@H]1COCCN1c1nc(-c2ccc(NC(=O)NC3CCC3)cc2)nc2c1COCC2 [Example 26, (S)-1-cyclobutyl-3-(4-(4-(3-methylmorpholino)-7,8-dihydro-5H-pyrano[4,3-d]pyrimidin-2-yl)phenyl)urea] | 1600 | 14 | 
22 | O=C(Nc1ccc(-c2nc3c(c(N4[C@@H]5CC[C@H]4COC5)n2)CCC2(CC2)O3)cc1)NC1COC1 [Example 71, 1-(4-(4′-((1R,5S)-3-oxa-8-azabicyclo[3.2.1]octan-8-yl)-5′,6′-dihydrospiro[cyclopropane-1,7′-pyrano[2,3-d]pyrimidine]-2′-yl)phenyl)-3-(oxetan-3-yl)urea] | 479 | 2 | 
23 | Nc1ccc(-c2nc3c(c(N4C[C@H]5CC[C@@H](C4)O5)n2)CCCO3)cn1 [Example 130, 5-(4-((1R,5S)-8-oxa-3-azabicyclo[3.2.1]octan-3-yl)-6,7-dihydro-5H-pyrano[2,3-d]pyrimidin-2-yl)pyridin-2-amine] | 743 | 30 | 
24 | C=CC[C@]1(C)OCc2c(N3CCOCC3)nc(-c3ccc(NC(=O)NCC)cc3)nc21 [Example 73 eb (S), (S)-1-(4-(7-allyl-7-methyl-4-morpholino-5,7-dihydrofuro[3,4-d]pyrimidin-2-yl)phenyl)-3-ethylurea] | 37.6 | 2 | 
